Measurements taken from ChEMBL document CHEMBL5150068, “Structure-Based Design of Tropane Derivatives as a Novel Series of CCR5 Antagonists with Broad-Spectrum Anti-HIV-1 Activities and Improved Oral Bioavailability” (J Med Chem, 2022).

Legend:
[1] = Cytotoxicity against human TZM-bl cells incubated for 48 hrs by MTT assay; format: toxicity, cell-based
[2] = Cytotoxicity against human PM1 cells incubated for 48 hrs by MTT assay; format: toxicity, cell-based
[3] = Cytotoxicity against human HOS-CD4-CCR5 cells incubated for 48 hrs by MTT assay; format: toxicity, cell-based
[4] = Cytotoxicity against human PBMC cells incubated for 48 hrs by MTT assay; format: toxicity, cell-based
[5] = Cmax in Sprague-Dawley rat at 10 mg/kg, po measured upto 24 hrs; format: ADME, organism-based; parameters: time < 24 hrs, dose 10 mg/kg, route po; details: in vivo
[6] = Tmax in Sprague-Dawley rat at 10 mg/kg, po measured upto 24 hrs; format: ADME, organism-based; details: in vivo
[7] = AUC (0 to infinitive) in Sprague-Dawley rat at 10 mg/kg, po measured upto 24 hrs; format: ADME, organism-based; parameters: dose 10 mg/kg, time < 24 hrs, route po; details: in vivo
[8] = Half life in Sprague-Dawley rat at 2 mg/kg, iv measured upto 24 hrs; format: ADME, organism-based; details: Sprague-Dawley, in vivo
[9] = Half life in Sprague-Dawley rat at 1 mg/kg, iv measured upto 24 hrs; format: ADME, organism-based; details: in vivo
[10] = Clearance in Sprague-Dawley rat at 1 mg/kg, iv measured upto 24 hrs; format: ADME, organism-based; details: in vivo
Cytochrome P450 1A2 = target: T1, Cytochrome P450 1A2 (Homo sapiens, UniProt P05177); test: Inhibition of CYP1A2 (unknown origin); format: ADME
T1 sequence (P05177 whole entry): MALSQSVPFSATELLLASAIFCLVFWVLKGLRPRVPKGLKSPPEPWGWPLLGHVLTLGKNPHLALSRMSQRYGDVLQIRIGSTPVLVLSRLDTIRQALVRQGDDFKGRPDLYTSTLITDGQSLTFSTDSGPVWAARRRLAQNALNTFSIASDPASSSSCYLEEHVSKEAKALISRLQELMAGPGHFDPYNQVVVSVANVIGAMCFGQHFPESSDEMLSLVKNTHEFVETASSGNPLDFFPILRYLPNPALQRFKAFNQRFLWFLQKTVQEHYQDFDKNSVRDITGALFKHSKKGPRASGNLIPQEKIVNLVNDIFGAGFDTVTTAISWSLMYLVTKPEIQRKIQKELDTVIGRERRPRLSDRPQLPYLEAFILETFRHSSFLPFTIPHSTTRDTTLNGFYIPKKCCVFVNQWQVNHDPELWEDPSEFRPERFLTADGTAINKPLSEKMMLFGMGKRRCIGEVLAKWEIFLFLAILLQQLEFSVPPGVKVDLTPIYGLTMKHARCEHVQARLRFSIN

Cytochrome P450 2C9 = Cytochrome P450 2C9 (Homo sapiens, UniProt P11712); test: Inhibition of CYP2C9 (unknown origin); format: ADME
Chain of Cytochrome P450 2C9 (P11712 whole entry): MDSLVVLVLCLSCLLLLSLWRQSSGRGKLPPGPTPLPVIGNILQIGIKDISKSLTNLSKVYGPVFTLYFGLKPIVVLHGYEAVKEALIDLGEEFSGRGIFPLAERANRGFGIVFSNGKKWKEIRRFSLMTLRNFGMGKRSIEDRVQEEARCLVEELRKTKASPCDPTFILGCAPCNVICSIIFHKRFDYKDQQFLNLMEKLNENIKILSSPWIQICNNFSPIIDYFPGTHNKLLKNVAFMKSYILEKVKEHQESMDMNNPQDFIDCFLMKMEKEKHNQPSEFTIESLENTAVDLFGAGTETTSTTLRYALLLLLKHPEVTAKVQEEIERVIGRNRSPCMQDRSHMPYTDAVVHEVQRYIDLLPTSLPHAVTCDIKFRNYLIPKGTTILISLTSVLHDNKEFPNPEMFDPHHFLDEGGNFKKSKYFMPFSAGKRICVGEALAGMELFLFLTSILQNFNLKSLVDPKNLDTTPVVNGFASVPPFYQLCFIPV

Cytochrome P450 2C19 = Cytochrome P450 2C19 (Homo sapiens, UniProt P33261); test: Inhibition of CYP2C19 (unknown origin); format: ADME
Chain of Cytochrome P450 2C19 (P33261 whole entry): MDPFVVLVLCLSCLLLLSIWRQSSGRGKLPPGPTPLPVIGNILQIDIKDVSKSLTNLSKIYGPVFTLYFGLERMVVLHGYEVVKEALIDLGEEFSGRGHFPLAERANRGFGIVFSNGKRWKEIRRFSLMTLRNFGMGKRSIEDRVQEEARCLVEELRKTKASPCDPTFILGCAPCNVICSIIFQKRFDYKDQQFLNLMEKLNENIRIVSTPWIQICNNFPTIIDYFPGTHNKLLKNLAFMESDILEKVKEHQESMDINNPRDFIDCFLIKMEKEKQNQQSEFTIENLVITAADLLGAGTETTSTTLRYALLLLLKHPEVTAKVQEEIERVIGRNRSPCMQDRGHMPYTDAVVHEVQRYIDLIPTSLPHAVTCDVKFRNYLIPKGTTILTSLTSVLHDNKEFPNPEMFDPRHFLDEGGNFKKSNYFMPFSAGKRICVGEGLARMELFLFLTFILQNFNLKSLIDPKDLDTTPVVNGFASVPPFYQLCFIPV

Cytochrome P450 2D6 = Cytochrome P450 2D6 (Homo sapiens, UniProt P10635); test: Inhibition of CYP2D6 (unknown origin); format: ADME
Chain of Cytochrome P450 2D6 (P10635 whole entry): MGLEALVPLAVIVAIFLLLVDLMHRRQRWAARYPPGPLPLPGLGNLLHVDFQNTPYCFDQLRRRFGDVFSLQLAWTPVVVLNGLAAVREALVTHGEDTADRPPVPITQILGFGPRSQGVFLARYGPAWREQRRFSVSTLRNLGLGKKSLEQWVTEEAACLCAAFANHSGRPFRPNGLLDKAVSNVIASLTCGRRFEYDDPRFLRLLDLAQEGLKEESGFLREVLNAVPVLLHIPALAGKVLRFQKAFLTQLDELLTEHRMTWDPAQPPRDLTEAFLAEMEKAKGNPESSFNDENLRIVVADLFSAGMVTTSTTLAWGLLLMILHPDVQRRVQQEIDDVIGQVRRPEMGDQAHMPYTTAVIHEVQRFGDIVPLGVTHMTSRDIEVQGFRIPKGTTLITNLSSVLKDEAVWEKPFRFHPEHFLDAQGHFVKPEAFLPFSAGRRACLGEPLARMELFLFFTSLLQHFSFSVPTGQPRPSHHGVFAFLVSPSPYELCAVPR

[11] = target: C-C chemokine receptor type 5 (Homo sapiens, UniProt P51681); test: Antagonist activity at CCR5 (unknown origin) expressed in HEK293 cells co-expressing Galpha16 assessed as intracellular calcium change incubated for 15 mins by Fluo-4 AM calcium flux assay; format: functional, cell-based
Chain of C-C chemokine receptor type 5 (P51681 whole entry): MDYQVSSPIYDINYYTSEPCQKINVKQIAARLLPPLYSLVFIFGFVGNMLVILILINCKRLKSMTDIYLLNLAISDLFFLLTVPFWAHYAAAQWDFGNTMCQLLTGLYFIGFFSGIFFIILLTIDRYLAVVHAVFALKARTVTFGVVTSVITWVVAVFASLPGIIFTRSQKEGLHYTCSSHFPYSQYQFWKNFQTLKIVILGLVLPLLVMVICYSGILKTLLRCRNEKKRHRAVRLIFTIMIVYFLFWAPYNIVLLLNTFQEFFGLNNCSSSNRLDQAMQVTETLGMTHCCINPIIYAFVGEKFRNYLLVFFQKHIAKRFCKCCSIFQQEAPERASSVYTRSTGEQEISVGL

[12] = system: Human immunodeficiency virus 1; test: Antiviral activity against HIV-1 Ba-L infected in human TZM-bl cells measured after 48 hrs incubation by luciferase based analysis; format: functional, organism-based; details: Human immunodeficiency virus 1, Ba-L
[13] = system: Human immunodeficiency virus 1; test: Antiviral activity against HIV-1 SF162 infected in human TZM-bl cells measured after 48 hrs incubation by luciferase based analysis; format: functional, organism-based; details: Human immunodeficiency virus 1, SF162, TZM-bl
[14] = system: Human immunodeficiency virus 1; test: Antiviral activity against HIV-1 YU-2 infected in human TZM-bl cells measured after 48 hrs incubation by luciferase based analysis; format: functional, organism-based; details: Human immunodeficiency virus 1, YU-2, TZM-bl, 48 h
[15] = system: Human immunodeficiency virus 1; test: Antiviral activity against HIV-1 Ba-L infected in human HOS-CD4-CCR5 cells measured after 48 hrs incubation by ELISA based p24 antigen assay; format: functional, organism-based; details: Human immunodeficiency virus 1, Ba-L
[16] = system: Human immunodeficiency virus 1; test: Antiviral activity against HIV-1 Ba-L infected in human PM1 cells measured after 48 hrs incubation by ELISA based p24 antigen assay; format: functional, organism-based; details: Human immunodeficiency virus 1, Ba-L, PM1, 48 h
[17] = system: Human immunodeficiency virus 1; test: Antiviral activity against HIV-1 IIIB infected in human TZM-bl cells measured after 48 hrs incubation by luciferase based analysis; format: functional, organism-based; details: Human immunodeficiency virus 1, IIIB
[18] = system: Human immunodeficiency virus 1; test: Antiviral activity against HIV-1 KM018 clinical isolate infected in human PBMC measured after 48 hrs incubation by luciferase based analysis; format: functional, organism-based; details: Human immunodeficiency virus 1, KM018, PBMC
[19] = system: Human immunodeficiency virus 1; test: Antiviral activity against HIV-1 KIZ001 clinical isolate infected in human PBMC measured after 48 hrs incubation by luciferase based analysis; format: functional, organism-based; details: Human immunodeficiency virus 1, KIZ001, PBMC
[20] = system: Human immunodeficiency virus 1; test: Antiviral activity against HIV-1 KIZ006 clinical isolate infected in human PBMC measured after 48 hrs incubation by luciferase based analysis; format: functional, organism-based; details: Human immunodeficiency virus 1, KIZ006, PBMC
[21] = system: Human immunodeficiency virus 1; test: Antiviral activity against HIV-1 YU-2 (G140S/Q148H) infected in human TZM-bl cells measured after 48 hrs incubation by luciferase based analysis; format: functional, organism-based; details: Human immunodeficiency virus 1, YU-2 (G140S/Q148H)
[22] = system: Human immunodeficiency virus 1; test: Synergistic antiviral activity against HIV-1 Ba-L infected in human TZM-bl cells assessed as combination index in presence of zidovudine; format: functional
[23] = system: Human immunodeficiency virus 1; test: Synergistic antiviral activity against HIV-1 Ba-L infected in human TZM-bl cells assessed as combination index in presence of lamivudine; format: functional
[24] = system: Human immunodeficiency virus 1; test: Synergistic antiviral activity against HIV-1 Ba-L infected in human TZM-bl cells assessed as combination index in presence of tenofovir; format: functional
[25] = system: Human immunodeficiency virus 1; test: Synergistic antiviral activity against HIV-1 Ba-L infected in human TZM-bl cells assessed as combination index in presence of etravirine; format: functional
[26] = system: Human immunodeficiency virus 1; test: Synergistic antiviral activity against HIV-1 Ba-L infected in human TZM-bl cells assessed as combination index in presence of emtricitabine; format: functional
[27] = system: Human immunodeficiency virus 1; test: Synergistic antiviral activity against HIV-1 Ba-L infected in human TZM-bl cells assessed as combination index in presence of nevirapine; format: functional
[28] = system: Human immunodeficiency virus 1; test: Synergistic antiviral activity against HIV-1 Ba-L infected in human TZM-bl cells assessed as combination index in presence of efavirenz; format: functional
[29] = system: Human immunodeficiency virus 1; test: Synergistic antiviral activity against HIV-1 Ba-L infected in human TZM-bl cells assessed as combination index in presence of raltegravir; format: functional
[30] = system: Human immunodeficiency virus 1; test: Synergistic antiviral activity against HIV-1 Ba-L infected in human TZM-bl cells assessed as combination index in presence of dolutegravir; format: functional
[31] = system: Human immunodeficiency virus 1; test: Synergistic antiviral activity against HIV-1 Ba-L infected in human TZM-bl cells assessed as combination index in presence of indinavir; format: functional
[32] = system: Human immunodeficiency virus 1; test: Synergistic antiviral activity against HIV-1 Ba-L infected in human TZM-bl cells assessed as combination index in presence of T-20; format: functional
[33] = Half life in Sprague-Dawley rat at 10 mg/kg, po measured upto 24 hrs; format: ADME, organism-based; details: in vivo
[34] = AUC (0 to last) in Sprague-Dawley rat at 10 mg/kg, po measured upto 24 hrs; format: ADME, organism-based; parameters: dose 10 mg/kg, time < 24 hrs, route po; details: in vivo
[35] = MRT in Sprague-Dawley rat at 10 mg/kg, po measured upto 24 hrs; format: ADME, organism-based; details: in vivo
[36] = Oral bioavailability in Sprague-Dawley rat at 10 mg/kg measured upto 24 hrs; format: ADME, organism-based; details: in vivo, po, 10 mg/kg, 24 h
[37] = AUC (0 to last) in Sprague-Dawley rat at 2 mg/kg, iv measured upto 24 hrs; format: ADME, organism-based; parameters: dose 2 mg/kg, time < 24 hrs, route iv; details: in vivo, 24 h
[38] = AUC (0 to infinitive) in Sprague-Dawley rat at 2 mg/kg, iv measured upto 24 hrs; format: ADME, organism-based; parameters: dose 2 mg/kg, time < 24 hrs, route iv; details: in vivo, 24 h
[39] = MRT in Sprague-Dawley rat at 2 mg/kg, iv measured upto 24 hrs; format: ADME, organism-based; details: Sprague-Dawley, in vivo, read-out: MRT
Cytochrome P450 3A4 [40] = target: T2, Cytochrome P450 3A4 (Homo sapiens, UniProt P08684); test: Inhibition of CYP3A4 (unknown origin) using midazolam as substrate; format: ADME
T2 sequence (P08684 whole entry): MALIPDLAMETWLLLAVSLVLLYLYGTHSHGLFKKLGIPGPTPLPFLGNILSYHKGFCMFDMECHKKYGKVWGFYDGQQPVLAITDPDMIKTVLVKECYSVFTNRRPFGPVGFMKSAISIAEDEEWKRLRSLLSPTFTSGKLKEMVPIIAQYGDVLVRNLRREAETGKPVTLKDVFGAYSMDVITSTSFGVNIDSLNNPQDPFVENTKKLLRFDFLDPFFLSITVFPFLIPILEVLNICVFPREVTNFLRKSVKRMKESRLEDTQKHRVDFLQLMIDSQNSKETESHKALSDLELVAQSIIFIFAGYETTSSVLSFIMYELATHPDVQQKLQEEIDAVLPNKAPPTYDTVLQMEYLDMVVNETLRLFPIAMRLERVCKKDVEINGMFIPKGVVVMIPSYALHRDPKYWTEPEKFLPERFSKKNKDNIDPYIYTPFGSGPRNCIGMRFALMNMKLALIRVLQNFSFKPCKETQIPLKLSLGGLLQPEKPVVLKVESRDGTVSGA

Cytochrome P450 3A4 [41] = target: T2, Cytochrome P450 3A4; test: Inhibition of CYP3A4 (unknown origin) using testosterone as substrate; format: ADME
in vitro [42] = details: human, TZM-bl cells
Description: Therapeutic index, ratio of CC50 for human TZM-bl cells to EC50 for antiviral activity against HIV-1 Ba-L

in vitro [43] = details: human, HOS-CD4-CCR5 cells
Description: Therapeutic index, ratio of CC50 for human HOS-CD4-CCR5 cells to EC50 for antiviral activity against HIV-1 Ba-L

in vitro [44] = details: human, PM1 cells
Description: Therapeutic index, ratio of CC50 for human PM1 cells to EC50 for antiviral activity against HIV-1 Ba-L

in vitro [45] = details: human, PM1 cells; remark: listed apart in the source
Description: Therapeutic index, ratio of CC50 for human PM1 cells to EC50 for antiviral activity against HIV-1 YU-2

in vitro [46] = details: human, PM1 cells; remark: listed apart in the source
Description: Therapeutic index, ratio of CC50 for human PM1 cells to EC50 for antiviral activity against HIV-1 SF162

in vitro [47] = details: human, PBMC
Description: Therapeutic index, ratio of CC50 for human PBMC to EC50 for antiviral activity against HIV-1 KM018 clinical isolate

in vitro [48] = details: human, PBMC; remark: listed apart in the source
Description: Therapeutic index, ratio of CC50 for human PBMC to EC50 for antiviral activity against HIV-1 KIZ001 clinical isolate

in vitro [49] = details: human, PBMC; remark: listed apart in the source
Description: Therapeutic index, ratio of CC50 for human PBMC to EC50 for antiviral activity against HIV-1 KIZ006 clinical isolate

## Cc1nnc(C(C)C)n1[C@@H]1C[C@H]2CC[C@@H](C1)N2CC[C@H](NC(=O)C1CCC(F)(F)CC1)c1ccccc1 [MARAVIROC]
[1]
  CC50 at 48 h: > 200 µM
[2]
  CC50 at 48 h: > 200 µM
[3]
  CC50 at 48 h: > 200 µM
[4]
  CC50 at 48 h: > 200 µM
[5]
  Cmax: 5.5 ng/mL
[6]
  Tmax: 2 h
[7]; Sprague-Dawley
  AUC(0-inf): 12.4 ng·h/mL
[8]
  half-life: 54 min
[9]
  half-life: 54 min
[10]
  clearance: 74 mL/min/kg
Cytochrome P450 1A2
  IC50: > 25 µM
Cytochrome P450 2C9
  IC50: 14.4 µM
Cytochrome P450 2C19
  IC50: > 25 µM
Cytochrome P450 2D6
  IC50: > 25 µM

## CC(=O)N1CCc2c(nc(C)n2[C@@H]2C[C@H]3CC[C@@H](C2)N3CC[C@H](NC(=O)C2CCC(F)(F)CC2)c2ccsc2)C1
[11]
  IC50: 15.9 nM
[12]
  EC50: 10 nM
[1]
  CC50 at 48 h: > 200 µM
[2]
  CC50 at 48 h: > 200 µM
[3]
  CC50 at 48 h: > 200 µM
[4]
  CC50 at 48 h: 103 µM
[13]
  EC50: 7.64 nM
[14]
  EC50: 2.89 nM
[15]
  EC50: 0.66 nM
[16]
  EC50: 0.29 nM
[17]
  EC50: > 1000 nM
[18]
  EC50: 23.3 nM
[19]
  EC50: 5.26 nM
[20]
  EC50: 19 nM
[21]
  EC50: 2.71 nM
[22]
  CI: 0.6
[23]
  CI: 0.69
[24]
  CI: 0.47
[25]
  CI: 0.75
[26]
  CI: 0.44
[27]
  CI: 0.41
[28]
  CI: 0.85
[29]
  CI: 0.46
[30]
  CI: 0.5
[31]
  CI: 0.95
[32]
  CI: 0.33
[5]
  Cmax: 66.4 ng/mL
[6]
  Tmax: 2.67 h
[33]
  half-life: 386 min
[34]
  AUC(0-t) at 24 h: 270 ng·h/mL
[7]; 24 h
  AUC: 270 ng·h/mL
[35]
  MRT: 9.16 h
[36]
  F: 11.9%
[8]
  half-life: 200 min
[37]
  AUC: 270 ng·h/mL
[38]
  AUC: 3.44 ng·h/mL
[39]
  MRT: 9.16 h
Cytochrome P450 1A2
  IC50: > 25 µM
Cytochrome P450 2C9
  IC50: > 25 µM
Cytochrome P450 2C19
  IC50: > 25 µM
Cytochrome P450 2D6
  IC50: > 25 µM
Cytochrome P450 3A4 [40]
  IC50: > 25 µM
Cytochrome P450 3A4 [41]
  IC50: > 25 µM
In vitro [42]
  selectivity ratio: > 20000
In vitro [43]
  selectivity ratio: > 30300
In vitro [44]
  selectivity ratio: > 69000
In vitro [45]
  selectivity ratio: > 69200
In vitro [46]
  selectivity ratio: > 26200
In vitro [47]
  selectivity ratio: 4400
In vitro [48]
  selectivity ratio: 19500
In vitro [49]
  selectivity ratio: 5390
